Where two headings read alike, the source gives them in different places.
How the values were obtained:
[1] = Minipig B/P (brain disposition); assay type: in vivo, female Gottingen minipigs; conditions: female, Gottingen, mean ± stdev
Description: Brain disposition of Example 13 was evaluated in female Gottingen minipigs (n=3, body weight range 13-14 kg). […] At the end of infusion (2 h) the minipigs were sacrificed and terminal blood as well as brain samples were taken (n=3). Isolated plasma and brain homogenates were extracted by standard protein precipitation in acetonitrile, containing internal standard, followed by LC-MS/MS analysis using an optimized analytical method. Concentrations of test compound in plasma and brain were quantified against matrix matched calibration standards. The total plasma and brain concentration time data are presented in Table 6 alongside the calculated brain Kp (total brain concentration:total plasma concentration ratio).

LRRK2 G2019S = target: T1, LRRK2 G2019S (Homo sapiens, UniProt Q5S007, G2019S); assay: LRRK2 G2019S kinase activity assay (LanthaScreen TR-FRET); assay type: biochemical; conditions: 250 pM LRRK2 G2019S, 1.3 mM ATP, 3 h at 30° C.; n≥2 tests
T1 construct: purchased Invitrogen (Life Technologies Corporation)
Method in brief: (§1)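 TR-FRET measured phosphorylation of fluorescein-ERM LRRKtide by human LRRK2 residues 970–2527, wild-type or G2019S, detected with a terbium anti-phospho-LRRKtide antibody. The 520/495 nm ratio was normalized to uninhibited and inhibitor controls. IC50 came from a Hill fit, log-averaged over independent experiments.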

LRRK2 WT = target: T2, LRRK2 WT (Homo sapiens, UniProt Q5S007); assay: LRRK2 wild-type kinase activity assay (LanthaScreen TR-FRET); assay type: biochemical; conditions: 1 nM LRRK2 WT, 1.3 mM ATP, 3.5 h at 30° C.; n≥2 tests
T2 construct: comprises residue 970 to 2527 of the full length human wild-type LRRK2 kinase; purchased Invitrogen (Life Technologies Corporation)
Method in brief: as §1

[2] = Free fraction in plasma (equilibrium dialysis); assay type: in vitro ADME, male Sprague-Dawley rat; conditions: rat plasma, 1 μM, 5 h at 37° C.
Method in brief: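 Equilibrium dialysis (12-14 kDa membrane) of male Sprague-Dawley rat or female Gottingen minipig plasma, or rat brain homogenate diluted 1:4, against 100 mM sodium phosphate pH 7.4, compound at 1 μM nominal (≤0.5% DMSO), 5 h at 37 °C. LC/MS-MS quantification; percent free calculated, with dilution factor 4 for brain.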

[3] = Rat B/P (brain disposition); assay type: in vivo, male Sprague-Dawley rats; conditions: for concentration at 1 h / Kp at 1 h / Kp uu at 1 h: male, Sprague-Dawley, time point 1.0 h; for Kp at 1 h / Kp uu at 1 h: brain/plasma; for Kp at 1 h: n = 3; for Kp uu at 1 h: po
Method in brief: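 Male Sprague-Dawley rats (n=3, standard body weight) were used to assess brain disposition. Plasma and brain homogenates underwent protein precipitation with acetonitrile containing internal standard, then LC-MS/MS measurement using an optimized method. Compound levels were quantified against matrix-matched calibration standards, and brain Kp was calculated as total brain concentration divided by total plasma concentration.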

T2 sequence (Q5S007 970-2527): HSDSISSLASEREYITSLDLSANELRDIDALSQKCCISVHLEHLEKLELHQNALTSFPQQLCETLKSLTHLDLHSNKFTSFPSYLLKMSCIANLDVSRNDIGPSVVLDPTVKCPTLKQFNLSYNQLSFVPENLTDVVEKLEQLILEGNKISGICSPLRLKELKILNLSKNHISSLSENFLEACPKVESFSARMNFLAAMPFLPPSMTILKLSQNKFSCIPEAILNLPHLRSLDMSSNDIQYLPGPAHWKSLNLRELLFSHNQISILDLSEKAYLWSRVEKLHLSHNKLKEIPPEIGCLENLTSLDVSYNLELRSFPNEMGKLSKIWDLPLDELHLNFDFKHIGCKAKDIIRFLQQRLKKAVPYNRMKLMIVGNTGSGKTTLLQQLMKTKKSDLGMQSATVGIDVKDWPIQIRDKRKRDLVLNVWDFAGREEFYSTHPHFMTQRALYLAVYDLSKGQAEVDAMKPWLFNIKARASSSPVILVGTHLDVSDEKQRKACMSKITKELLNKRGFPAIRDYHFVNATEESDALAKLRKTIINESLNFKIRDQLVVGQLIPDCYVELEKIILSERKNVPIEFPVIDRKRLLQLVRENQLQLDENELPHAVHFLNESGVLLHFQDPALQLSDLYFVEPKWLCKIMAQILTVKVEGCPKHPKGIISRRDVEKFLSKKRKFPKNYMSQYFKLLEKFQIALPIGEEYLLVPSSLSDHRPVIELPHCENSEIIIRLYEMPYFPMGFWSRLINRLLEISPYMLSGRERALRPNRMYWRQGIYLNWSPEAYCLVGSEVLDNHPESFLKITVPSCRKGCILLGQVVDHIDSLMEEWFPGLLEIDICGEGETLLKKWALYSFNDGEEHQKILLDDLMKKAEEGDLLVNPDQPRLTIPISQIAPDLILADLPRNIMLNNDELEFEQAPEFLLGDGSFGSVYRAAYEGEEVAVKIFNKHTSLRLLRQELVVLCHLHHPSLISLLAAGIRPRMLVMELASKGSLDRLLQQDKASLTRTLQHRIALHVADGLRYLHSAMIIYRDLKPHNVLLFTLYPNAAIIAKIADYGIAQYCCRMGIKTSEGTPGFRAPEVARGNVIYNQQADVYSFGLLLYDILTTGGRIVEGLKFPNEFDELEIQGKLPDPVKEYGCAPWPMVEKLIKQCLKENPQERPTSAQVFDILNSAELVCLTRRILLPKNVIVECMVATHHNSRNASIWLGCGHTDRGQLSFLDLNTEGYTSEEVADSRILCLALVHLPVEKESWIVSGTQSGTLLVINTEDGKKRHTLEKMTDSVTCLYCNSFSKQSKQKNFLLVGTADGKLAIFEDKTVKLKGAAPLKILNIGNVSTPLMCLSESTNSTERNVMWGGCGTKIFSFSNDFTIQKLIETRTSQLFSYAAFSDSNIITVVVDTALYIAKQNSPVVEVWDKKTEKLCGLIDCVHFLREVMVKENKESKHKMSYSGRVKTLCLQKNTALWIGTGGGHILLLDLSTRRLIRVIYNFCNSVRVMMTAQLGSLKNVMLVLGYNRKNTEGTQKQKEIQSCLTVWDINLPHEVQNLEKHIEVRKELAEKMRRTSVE
T1 sequence (Q5S007 970-2527 G2019S): as the sequence (Q5S007 970-2527) above, with G1050S counted along it

[2H]C([2H])([2H])c1c2c(nn1C1CCOCC1)OCCCn1nc(Cl)c3cnc(nc31)N2 [Example 13, 8-Chloro-3-(methyl-d3)-2-(tetrahydro-2H-pyran-4-yl)-2,4,12,13-tetrahydro-11H-5,7-(azenometheno)dipyrazolo[3,4-b:5′,1′-g][1]oxa[4,6,8]triazacycloundecine]
concentration at 2 h ([1]; brain, IV bolus 0.28 mg/kg + IV infusion 0.60 mg/kg, time point 2.00 h, n = 3, read-out: CTotal, brain): 0.151 ± 0.011 µg/mL
Kp at 2 h ([1]; intravenous, total brain:total plasma concentration ratio, time point 2.00 h, n = 3): 1.63 ± 0.08
concentration at 0.083 h ([1]; plasma, IV bolus 0.28 mg/kg + IV infusion 0.60 mg/kg, time point 0.083 h, n = 3, read-out: CTotal, plasma): 0.095 ± 0.018 µg/mL
concentration at 0.5 h ([1]; plasma, IV bolus 0.28 mg/kg + IV infusion 0.60 mg/kg, time point 0.50 h, n = 3, read-out: CTotal, plasma): 0.089 ± 0.02 µg/mL
concentration at 1 h ([1]; plasma, IV bolus 0.28 mg/kg + IV infusion 0.60 mg/kg, time point 1.00 h, n = 3, read-out: CTotal, plasma): 0.091 ± 0.009 µg/mL
concentration at 1.5 h ([1]; plasma, IV bolus 0.28 mg/kg + IV infusion 0.60 mg/kg, time point 1.50 h, n = 3, read-out: CTotal, plasma): 0.106 ± 0.013 µg/mL
concentration at 1.83 h ([1]; plasma, IV bolus 0.28 mg/kg + IV infusion 0.60 mg/kg, time point 1.83 h, n = 3, read-out: CTotal, plasma): 0.105 ± 0.008 µg/mL
concentration at 2 h ([1]; plasma, IV bolus 0.28 mg/kg + IV infusion 0.60 mg/kg, time point 2.00 h, n = 3, read-out: CTotal, plasma): 0.093 ± 0.011 µg/mL
IC50 (LRRK2 G2019S): 2.5 nM
IC50 (LRRK2 WT): 9.6 nM
fuplasma (% free) [2]: 32.0 % free
extent of brain penetration, classified from rat brain Kp,uu values ([3]; Table 8, brain free fraction from brain slice model): moderately high brain penetrant
concentration at 1 h ([3]; brain, oral gavage 1 mg/kg, Table 8, read-out: Total brain concentration): 0.13 ± 0.027 µg/mL
concentration at 1 h ([3]; brain, oral gavage 1 mg/kg, mean ± stdev, n = 3, read-out: Total brain concentration): 130 ± 27 ng/g
concentration at 1 h ([3]; brain, oral gavage 3 mg/kg, Table 8, read-out: Total brain concentration): 0.597 ± 0.169 µg/mL
concentration at 1 h ([3]; brain, oral gavage 3 mg/kg, mean ± stdev, n = 3, read-out: Total brain concentration): 597 ± 169 ng/g
concentration at 1 h ([3]; brain, oral gavage 10 mg/kg, Table 8, read-out: Total brain concentration): 2.03 ± 0.462 µg/mL
concentration at 1 h ([3]; brain, oral gavage 10 mg/kg, mean ± stdev, n = 3, read-out: Total brain concentration): 2030 ± 462 ng/g
Kp at 1 h ([3]; oral gavage 1 mg/kg, mean ± stdev): 1.76 ± 0.04
Kp at 1 h ([3]; oral gavage 3 mg/kg, mean ± stdev): 1.74 ± 0.1
Kp at 1 h ([3]; oral gavage 10 mg/kg, mean ± stdev): 1.3 ± 0.22
Kp uu at 1 h ([3]; 1 mg/kg, oral gavage 1 mg/kg, brain free fraction from rat brain slice model): 0.54 ± 0.01
Kp uu at 1 h ([3]; 1 mg/kg, oral gavage 1 mg/kg, fubrain from brain homogenate): 0.38 ± 0.01
Kp uu at 1 h ([3]; 3 mg/kg, oral gavage 3 mg/kg, brain free fraction from rat brain slice model): 0.54 ± 0.03
Kp uu at 1 h ([3]; 3 mg/kg, oral gavage 3 mg/kg, fubrain from brain homogenate): 0.38 ± 0.02
Kp uu at 1 h ([3]; 10 mg/kg, oral gavage 10 mg/kg, brain free fraction from rat brain slice model): 0.4 ± 0.07
Kp uu at 1 h ([3]; 10 mg/kg, oral gavage 10 mg/kg, fubrain from brain homogenate): 0.28 ± 0.05
concentration at 1 h ([3]; plasma, oral gavage 1 mg/kg, mean ± stdev, n = 3, read-out: Total plasma concentration): 0.074 ± 0.017 µg/mL
concentration at 1 h ([3]; plasma, oral gavage 3 mg/kg, mean ± stdev, n = 3, read-out: Total plasma concentration): 0.34 ± 0.078 µg/mL
concentration at 1 h ([3]; plasma, oral gavage 10 mg/kg, mean ± stdev, n = 3, read-out: Total plasma concentration): 1.64 ± 0.655 µg/mL
